Key:
E. coli BW25113 = test: Sensitizer MIC assay (vancomycin); assay type: cell-based; settings: 100 μM compound, wildtype strain
Protocol: (§1) To test for the sensitizer properties of the compounds, the inventors then performed a sensitizer MIC assay. To this end, E. coli BW25113, E. coli JW2496-3, and E. coli ATCC 25922 inocula were prepared as described above. Each well of a 96-well plate was prefilled with a fixed compound concentration of 100 μM and a dilution series of Vancomycin ranging from […]. A sensitizing effect was defined as reduction of the MIC value of Vancomycin of the respective test strain.

E. coli JW2496-3 = test: Sensitizer MIC assay (vancomycin); assay type: cell-based; settings: 100 μM compound, more susceptible strain
Protocol: as §1

E. coli ATCC 25922 = test: Sensitizer MIC assay (vancomycin); assay type: cell-based; settings: vancomycin; 100 μM compound; type strain
Protocol: as §1

SurA = SurA (Escherichia coli, UniProt P0ABZ6); test: Luciferase-based SurA activity assay (primary assay, in-house); assay type: biochemical, E. coli; settings: n/d: no signal detected; for Primary Assay ICmax: QHL-10 derivatives, dose response up to 125 μM; for Primary Assay Amplitude: amplitude of signal
From the text: The biological function of SurA is to bind and to keep outer membrane proteins that have reached the periplasm in an unfolded but folding-competent state. The inventors' assay is based on this interaction and uses firefly Luciferase (fLuc) as a non-native substrate. […] This is exploited in the assay (FIG. 3). The loss of tertiary structure of fLuc leads to the exposure of binding sites for SurA. It is known that SurA binds selectively to a special group of substrates. These substrates have in common the specific patterns of hydrophobic amino acids that are highly enriched in the beta strands of integral outer membrane proteins. These motifs are present in OMPs of all Gram-negative bacteria and in fLuc as well. Upon mild heat treatment of fLuc and its subsequent partial unfolding, fLuc is accepted as a substrate by SurA. Of note, these intermediates served as reporter substrates to determine the activity of a […] folding chaperone. […] This interaction remains stable upon temperature reduction. Next, the temperature of the assay is reduced to room temperature and luciferase activity is subsequently measured by addition of Luciferin and ATP. In conditions without SurA, fLuc will refold into its active conformation resulting in a luminescence signal.
In short, the Luciferase based SurA activity assay was performed in SurA Activity Assay Buffer (40 mM HEPES pH 7.4, 20 mM MgSO4, 0.5 g/I BSA). SurA aliquots were thawn at RT, activated by mild heat treatment and cooled down to RT for 10 min. […] Solution A containing 10 mM ATP as well as 0.3 mM Luciferin (Promega Beetle Luciferin, Potassium Salt) in water was prepared. Luciferase working solution was prepared by diluting 1 ml Luciferase working stock (100 nM) with 9 ml assay buffer. 33 μl of the protein solution were added to every 2nd row of a well of a 384-well PS, white, flat bottom plate. […] Subsequently, 2 μl of compound in DMSO were added in quadruplicates (4 wells each of protein solution and buffer controls). These compound solutions could contain either various compounds or different dilutions of the same compound allowing screening inhibitor activity in a dose dependent manner. After compound addition, plates were incubated 15 min at RT. After this incubation, 5 μl of Luciferase working solution were added to each well. Next, the plates were incubated 25 min at 38° C. to partially unfold the Luciferase. Subsequently, the assay plate was cooled for 5 min at 4° C. followed by 10 min incubation at RT prior to luminescence measurement. Luminescence was measured in a TECAN infinite M200 pro plate reader for each well individually after injection of 10 μl Solution A.

[1] = tested on: E. coli BW25113, E. coli JW2496-3, E. coli ATCC 25922; test: Minimal inhibitory concentration assay (bactericidal/bacteriostatic assessment); assay type: cell-based; settings: dilution series 100-1.7 μM
From the text: The intended effect of a SurA inhibitor should be the induction of a disturbance of the outer membrane composition resulting in an increased susceptibility to antibiotic treatment. Of note, Vancomycin is typically not used to treat infections with Gram-negative bacteria, because it is excluded by the OM and not efficient at concentrations that could be achieved in patients. However, at appropriate dosing in vitro it can be used to detect outer membrane defects. For determining a potential sensitizing effect of Vancomycin treatment, the inventors first tested whether the compounds at hand were bactericidal per se. Therefore, the inventors performed a minimal inhibitory concentration (MIC) assay. To this end, 5 ml overnight cultures of E. coli BW25113 (Keio-Collection reference strain), E. coli JW2496-3 (Keio-Collection single gene knockout for bamB, which suffers from decreased outer membrane integrity) and E. coli ATCC 25922 (a reference strain recommended for antibiotic susceptibility testing) were grown in Mueller Hinton Broth, Cation adjusted (MHB-II). The next day, the OD was adjusted to obtain 1*10^8 CFU/ml using fresh MHB-II. Next, this bacterial solution was diluted 1:100 into 20 ml fresh MHB-II. 50 μl of this bacteria solution were then transferred into each well of a 96-well plate prefilled with 50 μl MHB-II supplemented with the desired compounds. The test plates for the bactericidal assessment contained dilution series of the compounds from 100-1.7 μM. Plates were sealed with a gas permeable membrane and incubated o/n at 37° C. in a humid chamber without shaking. After o/n incubation, bacterial growth was quantified by measuring the optical density at 600 nm wavelength in a multiplate reader. Compounds showing no growth inhibition at 100 μM were considered non-bactericidal. Of note, the bactericidal effect of Vancomycin was assessed similarly for each test strain using Vancomycin concentrations ranging from […]. This was done to identify a Vancomycin concentration at which the strains just managed to survive.

Chain of SurA (P0ABZ6 21-428): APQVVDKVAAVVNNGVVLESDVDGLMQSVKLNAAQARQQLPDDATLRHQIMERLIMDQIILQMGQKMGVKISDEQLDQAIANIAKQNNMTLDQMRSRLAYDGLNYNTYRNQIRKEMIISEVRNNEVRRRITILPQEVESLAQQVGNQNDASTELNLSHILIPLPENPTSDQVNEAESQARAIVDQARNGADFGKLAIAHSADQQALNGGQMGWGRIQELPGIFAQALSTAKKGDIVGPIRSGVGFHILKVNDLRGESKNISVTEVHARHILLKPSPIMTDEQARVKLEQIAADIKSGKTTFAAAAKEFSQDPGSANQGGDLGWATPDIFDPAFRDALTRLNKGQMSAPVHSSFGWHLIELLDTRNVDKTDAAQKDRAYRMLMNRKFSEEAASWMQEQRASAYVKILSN

Structure (SMILES) | Sensitizer MIC Assay (log2-fold reduction of MIC in presence of compound) BW25113 (E. coli BW25113) [log2-fold] | Sensitizer MIC Assay (log2-fold reduction of MIC in presence of compound) JW2496-3 (E. coli JW2496-3) [log2-fold] | Sensitizer MIC Assay (log2-fold reduction of MIC in presence of compound) ATCC25922 (E. coli ATCC 25922) [log2-fold] | Primary Assay ICmax (SurA) [µM] | Primary Assay Amplitude (SurA) | Bacteriostatic MIC Assay Result [1]
CCOC(=O)COc1ccc(Cc2nc(C(N)=O)c(NC(=O)c3ccc(-c4ccccc4)cc3)[nH]2)cc1 [Compound 1a, Ethyl 2-(4-((5-([1,1′-biphenyl]-4-carboxamido)-4-carbamoyl-1H-imidazol-2-yl)methyl)-phenoxy)acetate] | 0 | 0 | 0 | 16 | high | non-bacteriostatic
CCOc1ccc2ccccc2c1C(=O)Nc1[nH]c(-c2ccc(F)c(N)c2)nc1C(N)=O [Compound 3g, 2-(3-amino-4-fluorophenyl)-5-(2-ethoxy-1-naphthamido)-1H-imidazole-4-carboxamide] | 0 | 0 | 0 | 64 | low | non-bacteriostatic
NC(=O)c1nc(-c2ccc(F)c(N)c2)[nH]c1NC(=O)c1ccc(-c2ccccc2)cc1 [Compound 3d, 5-([1,1′-biphenyl]-4-carboxamido)-2-(3-amino-4-fluorophenyl)-1H-imidazole-4-carboxamide] | 0 | 0 | 0 | 16 | high | non-bacteriostatic
NC(=O)c1nc(Cc2ccc(OCc3ccccc3)cc2)[nH]c1NC(=O)c1ccc(-c2ccccc2)cc1 [Compound 1d, 5-([1,1′-biphenyl]-4-carboxamido)-2-(4-(benzyloxy)benzyl)-1H-imidazole-4-carboxamide] | 0 | 0 | 0 | 32 | low | non-bacteriostatic

From US20240336573A1, “COMPOUND FOR THE TREATMENT AND PROPHYLAXIS OF INFECTIOUS DISEASES” (Eberhard Karls Universität Tübingen Medizinische Fakultät, priority 2021, published 2024)
